Measurements from ChEMBL document CHEMBL1201862, “PubChem BioAssay data set” (2004).
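Tested at 5 concentrations; 48 h exposure; 96-well plates; endpoints linearly interpolated, else capped at highest concentration. At the GI50, growth is halved.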 Activity calls are given as the source filed them. No stated cut-off is given here; in the data, active = GI50 up to about 1.1 µM and inactive = higher.

Assays:
Assay in all cases: NCI tumour cell line growth inhibition, 48 h
[1] = test system: T47D
[2] = test system: CAKI-1
[3] = test system: KM12
[4] = test system: SNB-75
[5] = test system: A549
[6] = test system: SK-MEL-2
[7] = test system: LOX IMVI
[8] = test system: EKVX
[9] = test system: HT-29
[10] = test system: U-251
[11] = test system: UO-31
[12] = test system: Malme-3M
[13] = test system: MDA-N
[14] = test system: NCI-H226
[15] = test system: SK-MEL-28
[16] = test system: HCC 2998
[17] = test system: SF-295
[18] = test system: SF-539
[19] = test system: RXF 393
[20] = test system: SN12C

Row | Structure (SMILES) | GI50 [1] | GI50 [2] | GI50 [3] | GI50 [4] | GI50 [5] | GI50 [6] | GI50 [7] | GI50 [8] | GI50 [9] | GI50 [10] | GI50 [11] | GI50 [12] | GI50 [13] | GI50 [14] | GI50 [15] | GI50 [16] | GI50 [17] | GI50 [18] | GI50 [19] | GI50 [20]
1 | OCC1CCCCCCCCCCC12SCCCS2 (configuration not stated) | 84.3 µM (inactive) | > 100 µM (inactive) | > 100 µM (inactive) | > 100 µM (inactive) | > 100 µM (inactive) | > 100 µM (inactive) | > 100 µM (inactive) | > 100 µM (inactive) | > 100 µM (inactive) | > 100 µM (inactive) | > 100 µM (inactive) | > 100 µM (inactive) | > 100 µM (inactive) | > 100 µM (inactive) | > 100 µM (inactive) | – | – | – | – | –
2 | COc1ccc2c(c1)-c1c(c3cc(OC)ccc3n1CCN1CCOCC1)CC2 | 44.4 µM (inactive) | 44.2 µM (inactive) | 22.6 µM (inactive) | 19.8 µM (inactive) | 23.9 µM (inactive) | 55.2 µM (inactive) | – | – | 13.5 µM (inactive) | 29.4 µM (inactive) | 24.5 µM (inactive) | 28.2 µM (inactive) | – | 14.7 µM (inactive) | 57.1 µM (inactive) | 1.76 µM (inactive) | 18.9 µM (inactive) | 28.4 µM (inactive) | 27.1 µM (inactive) | 62.2 µM (inactive)
3 | C#CC(O)/C=C/C(O)CCCC(O)CC#CC(O)C#CCCCCC(O)/C=C/CCCCCC(=O)CCCCCCCCCCCCCC(O)C(O)C#CC(=O)O (configuration not stated) | > 25 µM (inactive) | > 25 µM (inactive) | > 25 µM (inactive) | > 25 µM (inactive) | > 25 µM (inactive) | > 25 µM (inactive) | 4.6 µM (inactive) | > 25 µM (inactive) | > 25 µM (inactive) | > 25 µM (inactive) | 11.5 µM (inactive) | > 25 µM (inactive) | > 25 µM (inactive) | > 25 µM (inactive) | > 25 µM (inactive) | > 25 µM (inactive) | > 25 µM (inactive) | – | – | > 25 µM (inactive)
4 | CCC(CON(C)c1ccccc1)(SC)SC | 13.3 µM (inactive) | > 100 µM (inactive) | > 100 µM (inactive) | > 100 µM (inactive) | > 100 µM (inactive) | 28.7 µM (inactive) | > 100 µM (inactive) | > 100 µM (inactive) | > 100 µM (inactive) | > 100 µM (inactive) | 95.1 µM (inactive) | 13.5 µM (inactive) | > 100 µM (inactive) | > 100 µM (inactive) | > 100 µM (inactive) | > 100 µM (inactive) | > 100 µM (inactive) | > 100 µM (inactive) | – | > 100 µM (inactive)
5 | O=C1CC2OCC=C3CN4CCC56c7ccccc7N1C5C2C3CC46O (configuration not stated) | > 100 µM (inactive) | 97.3 µM (inactive) | > 100 µM (inactive) | > 100 µM (inactive) | > 100 µM (inactive) | > 100 µM (inactive) | > 100 µM (inactive) | > 100 µM (inactive) | > 100 µM (inactive) | > 100 µM (inactive) | > 100 µM (inactive) | > 100 µM (inactive) | > 100 µM (inactive) | > 100 µM (inactive) | > 100 µM (inactive) | > 100 µM (inactive) | > 100 µM (inactive) | > 100 µM (inactive) | – | > 100 µM (inactive)
6 | O=c1c(NCc2ccccc2)c(C2(c3ccccc3F)SCCCS2)c1=O | > 100 µM (inactive) | > 100 µM (inactive) | 46.1 µM (inactive) | > 100 µM (inactive) | > 100 µM (inactive) | > 100 µM (inactive) | > 100 µM (inactive) | > 100 µM (inactive) | > 100 µM (inactive) | > 100 µM (inactive) | > 100 µM (inactive) | – | 41.9 µM (inactive) | > 100 µM (inactive) | > 100 µM (inactive) | – | > 100 µM (inactive) | > 100 µM (inactive) | > 100 µM (inactive) | > 100 µM (inactive)
7 | COC1=C[C@]2(CCC(=O)O2)[C@@H]2Cc3ccccc3[C@H](O)[C@@H]2C1=O | 13.1 µM (inactive) | 47.6 µM (inactive) | > 100 µM (inactive) | – | > 100 µM (inactive) | 28.6 µM (inactive) | 28.7 µM (inactive) | > 100 µM (inactive) | > 100 µM (inactive) | 27.7 µM (inactive) | 39.8 µM (inactive) | 24.5 µM (inactive) | 15.8 µM (inactive) | 86.5 µM (inactive) | > 100 µM (inactive) | > 100 µM (inactive) | > 100 µM (inactive) | – | – | 47.6 µM (inactive)
8 | COc1c2ccoc2nc2c(OC)c(OCC(O)C(C)(C)O)ccc12 (configuration not stated) [EVOXINE] | > 100 µM (inactive) | > 100 µM (inactive) | > 100 µM (inactive) | 63.1 µM (inactive) | > 100 µM (inactive) | > 100 µM (inactive) | > 100 µM (inactive) | > 100 µM (inactive) | > 100 µM (inactive) | > 100 µM (inactive) | > 100 µM (inactive) | > 100 µM (inactive) | > 100 µM (inactive) | > 100 µM (inactive) | > 100 µM (inactive) | > 100 µM (inactive) | > 100 µM (inactive) | > 100 µM (inactive) | – | > 100 µM (inactive)
9 | Cc1oc2ccccc2c(=O)c1Cn1nnc2ccccc21 | 10.6 µM (inactive) | – | > 100 µM (inactive) | 45.6 µM (inactive) | 70.8 µM (inactive) | > 100 µM (inactive) | 73.3 µM (inactive) | > 100 µM (inactive) | 91.8 µM (inactive) | > 100 µM (inactive) | 47.3 µM (inactive) | > 100 µM (inactive) | 39.4 µM (inactive) | 53.1 µM (inactive) | 74 µM (inactive) | > 100 µM (inactive) | > 100 µM (inactive) | > 100 µM (inactive) | – | > 100 µM (inactive)
10 | Cc1csc2nc(-c3cc([N+](=O)[O-])c(Cl)cc3Cl)c(/C=N/N=C(N)N)n12 | 16.9 µM (inactive) | 15.6 µM (inactive) | 14.4 µM (inactive) | – | 19 µM (inactive) | 13.4 µM (inactive) | 16.7 µM (inactive) | 19.7 µM (inactive) | 16.1 µM (inactive) | 16.6 µM (inactive) | 16 µM (inactive) | 17.8 µM (inactive) | – | 18.5 µM (inactive) | 16.4 µM (inactive) | 7.19 µM (inactive) | 17.8 µM (inactive) | 18.7 µM (inactive) | 15.9 µM (inactive) | 16.2 µM (inactive)
11 | CCOC(=O)c1nc2cc(C(F)(F)F)ccc2nc1Nc1ccc(C(=O)OC)s1 | 25.7 µM (inactive) | 31.3 µM (inactive) | 38.7 µM (inactive) | 56.1 µM (inactive) | 48.6 µM (inactive) | 19.4 µM (inactive) | 30.5 µM (inactive) | 45.9 µM (inactive) | 37.1 µM (inactive) | 29.6 µM (inactive) | 33.3 µM (inactive) | 38.5 µM (inactive) | – | 27 µM (inactive) | 45 µM (inactive) | 36.1 µM (inactive) | 43 µM (inactive) | – | 16.8 µM (inactive) | –
12 | COc1ccc(N2C(=O)C(=O)C3(CCCCC3)C2=O)c(OC)c1OC | > 100 µM (inactive) | > 100 µM (inactive) | > 100 µM (inactive) | > 100 µM (inactive) | > 100 µM (inactive) | – | > 100 µM (inactive) | > 100 µM (inactive) | > 100 µM (inactive) | > 100 µM (inactive) | > 100 µM (inactive) | > 100 µM (inactive) | > 100 µM (inactive) | > 100 µM (inactive) | > 100 µM (inactive) | – | > 100 µM (inactive) | > 100 µM (inactive) | > 100 µM (inactive) | > 100 µM (inactive)
13 | CS(=O)(=O)N1CC(CI)c2ccc(O)cc21 (configuration not stated) | – | 1.96 µM (inactive) | 3.59 µM (inactive) | 1.79 µM (inactive) | 3.56 µM (inactive) | 2.1 µM (inactive) | 3.21 µM (inactive) | 3.74 µM (inactive) | 3.4 µM (inactive) | 2.49 µM (inactive) | 3.35 µM (inactive) | 1.93 µM (inactive) | 2.54 µM (inactive) | 3.5 µM (inactive) | 3.23 µM (inactive) | 2.08 µM (inactive) | 3.51 µM (inactive) | 2.99 µM (inactive) | 1.07 µM (active) | 3.44 µM (inactive)
14 | Cc1cc(C)nc(NS(=O)(=O)c2ccc(Nc3c4ccccc4nc4c(C(=O)NCCCN(CCO)CCO)cccc34)cc2)n1 | 22.5 µM (inactive) | 56.2 µM (inactive) | 12.6 µM (inactive) | 3.35 µM (inactive) | 26.4 µM (inactive) | 14.2 µM (inactive) | 10.3 µM (inactive) | 36.6 µM (inactive) | 12.9 µM (inactive) | 13.9 µM (inactive) | 42 µM (inactive) | 15.4 µM (inactive) | 17.7 µM (inactive) | – | 14.2 µM (inactive) | 16.7 µM (inactive) | 27.4 µM (inactive) | – | – | 8.22 µM (inactive)
15 | C/C(C=O)=N\Nc1cc(C)c2ccccc2n1 | 15.8 µM (inactive) | 16.9 µM (inactive) | 15 µM (inactive) | 15.1 µM (inactive) | 20.6 µM (inactive) | 15.2 µM (inactive) | 13.2 µM (inactive) | 16.9 µM (inactive) | 16.7 µM (inactive) | 14 µM (inactive) | 14.9 µM (inactive) | – | – | 6.52 µM (inactive) | 16.3 µM (inactive) | 15.1 µM (inactive) | 15.2 µM (inactive) | 11.7 µM (inactive) | 17.5 µM (inactive) | 16.3 µM (inactive)
